The values below come from paper PMC4384643 (Molecular cell, 2015).

The test system of one assay is BCL-2. The following applies: ref Souers et al., 2013; cited from earlier work.
Another assay deals with BAX. In words: BAX/BCL-2 co-immunoprecipitation in HeLa cells. The class given is binding. The following applies: HeLa cells co-expressing full-length BAX and BCL-2; BCL-2 antibody IP.

“Also recorded” adds a separate entry of the source.

Take `CC1(C)CCC(CN2CCN(c3ccc(C(=O)NS(=O)(=O)c4ccc(NCC5CCOCC5)c([N+](=O)[O-])c4)c(Oc4cnc5[nH]ccc5c4)c3)CC2)=C(c2ccc(Cl)cc2)C1` [ABT-199]: the BCL-2 inhibitory activity result with BCL-2 is on record as “selective BCL-2 inhibitor”.
“BCL-2 L23A: L23A point mutant of BCL-2 protein”: the “co-immunoprecipitation of BAX with BCL-2” value in the assay with BAX is “impaired by L23A mutagenesis of the BCL-2 BH4 domain; also recorded: less effective at co-immunoprecipitating BAX relative to wild-type BCL-2”.
